From ChEMBL document CHEMBL1201862, “PubChem BioAssay data set” (2004)
Activity calls are given as the source filed them.

Experiments:
[1] = Luminescence-based cell-based high throughput dose response assay to identify activators of the DAF-12 from the parasite S. stercoralis (ssDAF-12).; type: functional
[2] = molecular target: T1, Oxysterols receptor LXR-beta (Homo sapiens, UniProt P55055); type: functional, cell-based;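 also: Cell-based luminescence dose-response assay of agonist activity at LXR, run as a confirmatory counterscreen to a daf-12 agonist screen; agonist potency from rising luciferase signal of a Gal4-LXR reporter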
T1 sequence (P55055 whole entry): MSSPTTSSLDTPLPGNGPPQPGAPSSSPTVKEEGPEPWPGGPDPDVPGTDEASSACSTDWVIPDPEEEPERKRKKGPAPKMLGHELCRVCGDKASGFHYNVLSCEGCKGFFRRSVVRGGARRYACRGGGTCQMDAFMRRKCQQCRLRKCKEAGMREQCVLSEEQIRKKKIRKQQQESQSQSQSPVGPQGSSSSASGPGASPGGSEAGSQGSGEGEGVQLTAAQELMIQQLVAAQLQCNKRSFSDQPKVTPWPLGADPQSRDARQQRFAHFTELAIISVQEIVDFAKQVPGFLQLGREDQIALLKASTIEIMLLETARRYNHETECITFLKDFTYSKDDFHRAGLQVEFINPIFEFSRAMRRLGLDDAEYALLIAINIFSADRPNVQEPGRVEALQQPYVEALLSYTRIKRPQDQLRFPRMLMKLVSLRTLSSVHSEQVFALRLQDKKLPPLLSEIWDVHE

[3] = molecular target: T1, Oxysterols receptor LXR-beta; test: LXR agonists, Gal4 luciferase reporter, dose response, counter-screen for ssDAF-12 agonist project, cell-based, luminescence, HEK293, S. stercoralis campaign (AID 720737); type: functional; conditions: read-out: IC50 (the source's name)
Prothrombin = Prothrombin (Homo sapiens, UniProt P00734); test: Thrombin 1536 HTS Dose Response Confirmation. [Related pubchem assays: 1046 (Thrombin 1536 HTS; hits were confirmed in this assay)]; type: functional
[4] = molecular target: Peroxisome proliferator-activated receptor gamma/Nuclear receptor coactivator 1 (Homo sapiens, UniProt P37231); type: functional;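 also: agonist potency as compounds enhance coactivator SRC-1 recruitment to PPARgamma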
[5] = molecular target: Peroxisome proliferator-activated receptor gamma/Nuclear receptor coactivator 3 (Homo sapiens, UniProt P37231); type: functional;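 also: agonist potency for raising coactivator recruitment to the receptor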
[6] = molecular target: Peroxisome proliferator-activated receptor gamma/Nuclear receptor coactivator 2 (Homo sapiens, UniProt P37231); type: functional;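 also: agonist potency for raising coactivator recruitment to the receptor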
[7] = molecular target: T2, Mannose-6-phosphate isomerase (Homo sapiens, UniProt P34949); test: MPI inhibition at elevated mannose 6-phosphate – biochemical, fluorescence intensity, high mannose 6-phosphate, primary screen (AID 1220)
T2 sequence (P34949 whole entry): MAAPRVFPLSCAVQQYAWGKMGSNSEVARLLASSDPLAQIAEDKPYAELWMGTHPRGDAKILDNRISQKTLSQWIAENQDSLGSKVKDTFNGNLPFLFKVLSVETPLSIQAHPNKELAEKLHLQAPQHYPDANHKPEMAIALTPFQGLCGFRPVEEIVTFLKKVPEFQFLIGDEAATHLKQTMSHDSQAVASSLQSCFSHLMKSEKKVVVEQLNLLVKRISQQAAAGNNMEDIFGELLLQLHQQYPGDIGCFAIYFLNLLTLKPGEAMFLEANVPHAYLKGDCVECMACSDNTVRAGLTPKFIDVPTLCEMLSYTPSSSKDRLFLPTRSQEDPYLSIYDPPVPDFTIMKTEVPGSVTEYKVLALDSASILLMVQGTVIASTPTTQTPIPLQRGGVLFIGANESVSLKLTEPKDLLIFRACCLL

Caspase-6 = molecular target: T3, Caspase-6 (Homo sapiens, UniProt P55212); test: inhibition of CASP6 peptide cleavage – biochemical, VEID-R110 fluorescence, cherry-pick, dose response (AID 720632)
T3 sequence (P55212 whole entry): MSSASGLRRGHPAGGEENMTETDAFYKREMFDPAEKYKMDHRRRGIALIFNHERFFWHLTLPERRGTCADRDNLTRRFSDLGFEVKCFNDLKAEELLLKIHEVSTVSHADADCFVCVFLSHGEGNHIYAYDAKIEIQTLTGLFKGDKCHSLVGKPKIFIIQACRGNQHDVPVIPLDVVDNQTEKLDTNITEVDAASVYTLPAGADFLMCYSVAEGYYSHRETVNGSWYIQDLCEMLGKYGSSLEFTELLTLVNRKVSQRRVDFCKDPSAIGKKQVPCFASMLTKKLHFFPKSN

[8] = molecular target: T4, Polyadenylate-binding protein 1 (Homo sapiens, UniProt P11940); test: MLLE binding blockers, Cy5 peptide tracer – biochemical, fluorescence polarization, Cy5-PAM2 peptide, secondary, miRNA deadenylation inhibitor project, dose response (AID 602260); type: functional; conditions: read-out: IC50_Mean
P388 = test: cells; type: functional; conditions: Mus musculus
P388/ADR = test: cells; type: functional; conditions: Mus musculus
SN12K1 = test: cells; type: functional; conditions: Homo sapiens
[9] = molecular target: T4, Polyadenylate-binding protein 1; test: MLLE domain peptide-binding blockers, IC50 – biochemical, fluorescence polarization, FITC-PAM2 peptide, dose response (AID 602259); type: functional; conditions: read-out: IC50_Mean
[10] = molecular target: T5, Voltage-gated N-type calcium channel alpha-1B subunit/Amyloid beta A4 precursor protein-binding family A member 1 (Homo sapiens, UniProt Q00975+Q02410); type: protein assay
[11] = molecular target: DNA dC->dU-editing enzyme APOBEC-3G (Homo sapiens, UniProt Q9HC16); test: Dose Response confirmation of small molecule APOBEC3G DNA Deaminase Inhibitors via a fluorescence-based single-stranded DNA deaminase assay. [Related pubchem assays (depositor defined):AID493012, AID493028]; type: functional
[12] = molecular target: DNA dC->dU-editing enzyme APOBEC-3A (Homo sapiens, UniProt P31941); test: A3A deaminase inhibition for selectivity – biochemical, dose response (AID 504722); type: functional
[13] = molecular target: Eukaryotic translation initiation factor 4E (Mus musculus, UniProt P63073); test: blockers of eIF4G binding by eIF4E – biochemical, TR-FRET, dose response (AID 855); type: functional;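 also: potency for disrupting eIF4E binding to eIF4GI seen as loss of FRET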
[14] = molecular target: T5, Voltage-gated N-type calcium channel alpha-1B subunit/Amyloid beta A4 precursor protein-binding family A member 1; type: protein assay; remark: listed apart in the source
[15] = molecular target: T6, Luciferin 4-monooxygenase (Photinus pyralis, UniProt P08659); test: inhibition of purified Photinus pyralis luciferase – biochemical, luminescence, dose response (AID 1891)
[16] = Luminescence Cell-Based Dose Response HTS to Identify Inhibitors of 5'UTR Stem-Loop Driven Prion Protein mRNA Translation in H4 Neuroglioblastoma Cells. [Related pubchem assays: 1827 (Project Summary), 1813 (Primary HTS)]; type: functional
[17] = molecular target: T6, Luciferin 4-monooxygenase; test: Counter Screen for Luciferase-based Assay Positives. [Related pubchem assays: 620, 618, 411 ]
HT-1080 = test: HT1080 cell viability loss – fluorescence readout (AID 620); type: functional, cell-based; conditions: Homo sapiens
Protein RecA = molecular target: T7, Protein RecA (Mycobacterium tuberculosis, UniProt P9WHJ3); test: Fluorescence Cell-Free Homogeneous Dose Retest to Identify Inhibitors of RecA-Intein Splicing Activity. [Related pubchem assays (depositor defined):AID2097, AID2223, AID489010, AID492950]; type: functional
T7 sequence (P9WHJ3 whole entry): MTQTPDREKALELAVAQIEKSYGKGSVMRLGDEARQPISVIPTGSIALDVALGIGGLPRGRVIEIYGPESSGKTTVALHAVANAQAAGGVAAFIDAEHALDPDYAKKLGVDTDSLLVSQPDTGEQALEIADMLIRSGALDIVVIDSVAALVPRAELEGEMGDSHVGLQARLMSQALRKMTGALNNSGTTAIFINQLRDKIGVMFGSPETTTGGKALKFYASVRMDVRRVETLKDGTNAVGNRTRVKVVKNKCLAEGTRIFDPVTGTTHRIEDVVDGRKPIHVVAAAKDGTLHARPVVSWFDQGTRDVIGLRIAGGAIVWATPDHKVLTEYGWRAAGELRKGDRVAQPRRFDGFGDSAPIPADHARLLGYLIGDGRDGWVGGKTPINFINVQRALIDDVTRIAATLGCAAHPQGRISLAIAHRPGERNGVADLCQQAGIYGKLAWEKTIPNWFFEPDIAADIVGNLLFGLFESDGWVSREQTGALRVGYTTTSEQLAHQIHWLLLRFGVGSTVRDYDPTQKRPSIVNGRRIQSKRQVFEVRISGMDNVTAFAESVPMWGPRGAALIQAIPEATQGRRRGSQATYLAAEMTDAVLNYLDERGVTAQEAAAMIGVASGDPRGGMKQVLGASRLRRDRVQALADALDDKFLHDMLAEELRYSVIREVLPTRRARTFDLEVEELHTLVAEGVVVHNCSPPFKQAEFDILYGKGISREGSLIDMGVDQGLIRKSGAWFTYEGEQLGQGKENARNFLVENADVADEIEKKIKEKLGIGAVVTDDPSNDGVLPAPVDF

[18] = Luminescence Cell-Based Dose Confirmation HTS to Identify Inhibitors of Platelet Dense Granule Release. [Related pubchem assays: 1663 (Primary HTS), 1678 (Summary of Project)]; type: functional
[19] = molecular target: T8, Replicative DNA helicase DnaB (Mycobacterium tuberculosis, UniProt P9WMR3); test: DnaB intein splicing inhibitors, dose response, biochemical, cell-free fluorescence (AID 449749); type: functional
T8 sequence (P9WMR3 whole entry): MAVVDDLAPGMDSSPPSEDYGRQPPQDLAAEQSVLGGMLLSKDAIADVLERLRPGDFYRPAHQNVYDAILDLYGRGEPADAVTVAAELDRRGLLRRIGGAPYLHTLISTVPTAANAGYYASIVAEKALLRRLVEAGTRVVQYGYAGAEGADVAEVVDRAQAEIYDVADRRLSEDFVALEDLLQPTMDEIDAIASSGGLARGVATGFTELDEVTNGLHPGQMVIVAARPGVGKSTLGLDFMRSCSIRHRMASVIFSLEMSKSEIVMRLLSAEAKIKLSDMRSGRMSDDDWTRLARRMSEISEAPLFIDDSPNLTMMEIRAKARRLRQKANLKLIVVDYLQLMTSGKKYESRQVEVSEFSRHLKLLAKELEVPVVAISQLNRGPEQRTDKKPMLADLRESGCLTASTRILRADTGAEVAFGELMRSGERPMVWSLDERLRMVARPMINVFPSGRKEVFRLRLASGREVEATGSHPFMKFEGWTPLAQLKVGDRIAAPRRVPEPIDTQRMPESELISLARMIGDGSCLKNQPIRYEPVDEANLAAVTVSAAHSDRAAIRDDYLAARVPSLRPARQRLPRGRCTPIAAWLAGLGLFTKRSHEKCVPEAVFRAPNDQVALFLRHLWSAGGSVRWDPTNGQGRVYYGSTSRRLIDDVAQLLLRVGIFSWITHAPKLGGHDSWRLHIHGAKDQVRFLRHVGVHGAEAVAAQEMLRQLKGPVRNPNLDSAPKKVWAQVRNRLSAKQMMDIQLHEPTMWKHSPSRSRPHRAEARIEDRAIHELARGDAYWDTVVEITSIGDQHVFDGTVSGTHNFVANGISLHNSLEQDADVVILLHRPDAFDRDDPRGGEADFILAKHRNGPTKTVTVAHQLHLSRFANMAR

[20] = microbe, parasite or virus in culture; type: functional; conditions: Mycobacterium tuberculosis

T4 sequence (P11940 whole entry): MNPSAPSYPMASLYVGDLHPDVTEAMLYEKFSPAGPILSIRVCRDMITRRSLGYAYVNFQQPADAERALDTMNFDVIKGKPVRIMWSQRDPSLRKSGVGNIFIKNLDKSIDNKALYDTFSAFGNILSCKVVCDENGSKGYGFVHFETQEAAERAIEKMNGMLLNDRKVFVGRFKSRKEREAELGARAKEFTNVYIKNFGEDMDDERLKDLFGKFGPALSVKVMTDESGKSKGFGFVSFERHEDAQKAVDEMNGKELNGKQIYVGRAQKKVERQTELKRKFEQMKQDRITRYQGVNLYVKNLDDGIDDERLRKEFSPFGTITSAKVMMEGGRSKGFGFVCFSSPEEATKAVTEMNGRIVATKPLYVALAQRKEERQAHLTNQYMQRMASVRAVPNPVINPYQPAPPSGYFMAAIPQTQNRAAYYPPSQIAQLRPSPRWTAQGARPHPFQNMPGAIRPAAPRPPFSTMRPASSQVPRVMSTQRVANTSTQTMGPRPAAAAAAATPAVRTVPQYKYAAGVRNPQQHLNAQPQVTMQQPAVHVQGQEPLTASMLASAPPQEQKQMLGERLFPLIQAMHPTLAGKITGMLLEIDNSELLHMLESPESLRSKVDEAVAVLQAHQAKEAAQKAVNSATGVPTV
T5 sequence (Q00975 whole entry): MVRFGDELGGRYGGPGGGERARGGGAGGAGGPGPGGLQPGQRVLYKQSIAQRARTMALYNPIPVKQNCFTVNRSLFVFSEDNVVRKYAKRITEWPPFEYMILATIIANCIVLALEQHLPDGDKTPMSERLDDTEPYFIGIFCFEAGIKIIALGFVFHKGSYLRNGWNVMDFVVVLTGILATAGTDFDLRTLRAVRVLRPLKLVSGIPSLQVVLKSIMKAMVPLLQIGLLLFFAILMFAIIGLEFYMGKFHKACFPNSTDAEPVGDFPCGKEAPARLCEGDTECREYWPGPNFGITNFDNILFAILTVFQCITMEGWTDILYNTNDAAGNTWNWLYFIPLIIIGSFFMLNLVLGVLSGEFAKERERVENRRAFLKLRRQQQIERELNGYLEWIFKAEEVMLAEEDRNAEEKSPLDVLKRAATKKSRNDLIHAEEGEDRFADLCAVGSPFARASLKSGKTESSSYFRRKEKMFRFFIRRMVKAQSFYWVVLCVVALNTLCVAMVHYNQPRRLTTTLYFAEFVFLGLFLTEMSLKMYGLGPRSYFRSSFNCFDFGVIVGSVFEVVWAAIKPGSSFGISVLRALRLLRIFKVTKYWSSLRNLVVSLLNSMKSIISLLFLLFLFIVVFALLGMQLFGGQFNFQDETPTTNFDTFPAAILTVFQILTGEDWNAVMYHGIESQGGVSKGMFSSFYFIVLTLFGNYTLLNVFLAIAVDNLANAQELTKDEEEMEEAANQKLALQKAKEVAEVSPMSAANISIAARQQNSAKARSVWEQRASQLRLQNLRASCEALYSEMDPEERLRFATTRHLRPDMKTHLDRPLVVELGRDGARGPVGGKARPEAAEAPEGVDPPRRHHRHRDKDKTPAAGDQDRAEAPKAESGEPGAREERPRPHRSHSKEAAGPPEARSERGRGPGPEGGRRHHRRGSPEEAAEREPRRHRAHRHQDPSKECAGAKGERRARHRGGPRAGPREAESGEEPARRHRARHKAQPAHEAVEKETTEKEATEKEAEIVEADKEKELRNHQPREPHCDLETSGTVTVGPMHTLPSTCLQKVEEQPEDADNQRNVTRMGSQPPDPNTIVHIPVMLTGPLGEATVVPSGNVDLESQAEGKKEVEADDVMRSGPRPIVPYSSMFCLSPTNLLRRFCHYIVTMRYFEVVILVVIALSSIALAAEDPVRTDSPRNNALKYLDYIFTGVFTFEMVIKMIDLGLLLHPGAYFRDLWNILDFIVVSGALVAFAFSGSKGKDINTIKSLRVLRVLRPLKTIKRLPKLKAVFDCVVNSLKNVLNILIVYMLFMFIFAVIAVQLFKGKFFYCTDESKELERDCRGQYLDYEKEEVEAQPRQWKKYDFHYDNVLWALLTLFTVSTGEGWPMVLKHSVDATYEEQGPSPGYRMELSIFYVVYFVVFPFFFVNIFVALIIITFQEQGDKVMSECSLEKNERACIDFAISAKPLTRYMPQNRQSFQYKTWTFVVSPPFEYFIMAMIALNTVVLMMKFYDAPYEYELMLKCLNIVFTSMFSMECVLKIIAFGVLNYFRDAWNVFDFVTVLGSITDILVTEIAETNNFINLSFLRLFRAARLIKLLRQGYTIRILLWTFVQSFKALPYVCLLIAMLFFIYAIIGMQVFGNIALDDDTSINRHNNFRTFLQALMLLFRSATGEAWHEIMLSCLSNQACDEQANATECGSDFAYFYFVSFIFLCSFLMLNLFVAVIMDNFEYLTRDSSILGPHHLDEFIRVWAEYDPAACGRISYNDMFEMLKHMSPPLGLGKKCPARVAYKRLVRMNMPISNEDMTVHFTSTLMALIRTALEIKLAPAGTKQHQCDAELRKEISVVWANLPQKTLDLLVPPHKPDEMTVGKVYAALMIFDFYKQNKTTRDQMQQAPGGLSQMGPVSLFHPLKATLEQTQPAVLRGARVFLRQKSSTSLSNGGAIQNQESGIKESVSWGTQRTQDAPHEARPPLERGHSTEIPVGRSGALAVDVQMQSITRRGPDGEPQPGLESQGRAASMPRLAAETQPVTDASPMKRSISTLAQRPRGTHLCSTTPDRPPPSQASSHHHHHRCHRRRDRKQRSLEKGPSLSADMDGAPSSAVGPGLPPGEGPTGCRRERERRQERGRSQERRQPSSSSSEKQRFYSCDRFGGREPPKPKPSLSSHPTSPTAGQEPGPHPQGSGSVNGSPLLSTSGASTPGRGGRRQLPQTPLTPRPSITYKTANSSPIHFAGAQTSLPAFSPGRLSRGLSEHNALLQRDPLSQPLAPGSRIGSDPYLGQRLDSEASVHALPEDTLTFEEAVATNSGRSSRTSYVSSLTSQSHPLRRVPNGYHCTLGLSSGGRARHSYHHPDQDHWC
T5 sequence (Q02410 whole entry): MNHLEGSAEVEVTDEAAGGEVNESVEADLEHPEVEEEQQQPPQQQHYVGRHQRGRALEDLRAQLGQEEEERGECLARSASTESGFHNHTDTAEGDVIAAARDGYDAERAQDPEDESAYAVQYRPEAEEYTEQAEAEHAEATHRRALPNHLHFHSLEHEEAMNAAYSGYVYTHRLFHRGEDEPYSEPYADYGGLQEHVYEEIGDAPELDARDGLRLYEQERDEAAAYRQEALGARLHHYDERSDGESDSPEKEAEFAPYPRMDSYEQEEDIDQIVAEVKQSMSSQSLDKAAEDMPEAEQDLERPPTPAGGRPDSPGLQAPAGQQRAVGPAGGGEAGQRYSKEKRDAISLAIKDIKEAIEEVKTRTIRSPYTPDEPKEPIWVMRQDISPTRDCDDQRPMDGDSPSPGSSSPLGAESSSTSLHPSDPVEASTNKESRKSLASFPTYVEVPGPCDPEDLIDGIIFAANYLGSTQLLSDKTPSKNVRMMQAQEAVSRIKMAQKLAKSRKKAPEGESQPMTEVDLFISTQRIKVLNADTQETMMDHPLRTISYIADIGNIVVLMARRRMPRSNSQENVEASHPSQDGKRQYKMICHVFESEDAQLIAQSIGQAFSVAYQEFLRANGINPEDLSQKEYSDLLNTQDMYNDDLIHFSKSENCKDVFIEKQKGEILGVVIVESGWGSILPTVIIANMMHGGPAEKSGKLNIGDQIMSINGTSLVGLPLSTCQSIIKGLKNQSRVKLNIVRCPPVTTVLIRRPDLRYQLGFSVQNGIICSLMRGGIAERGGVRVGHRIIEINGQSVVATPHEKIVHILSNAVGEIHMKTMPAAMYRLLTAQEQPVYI
T6 sequence (P08659 whole entry): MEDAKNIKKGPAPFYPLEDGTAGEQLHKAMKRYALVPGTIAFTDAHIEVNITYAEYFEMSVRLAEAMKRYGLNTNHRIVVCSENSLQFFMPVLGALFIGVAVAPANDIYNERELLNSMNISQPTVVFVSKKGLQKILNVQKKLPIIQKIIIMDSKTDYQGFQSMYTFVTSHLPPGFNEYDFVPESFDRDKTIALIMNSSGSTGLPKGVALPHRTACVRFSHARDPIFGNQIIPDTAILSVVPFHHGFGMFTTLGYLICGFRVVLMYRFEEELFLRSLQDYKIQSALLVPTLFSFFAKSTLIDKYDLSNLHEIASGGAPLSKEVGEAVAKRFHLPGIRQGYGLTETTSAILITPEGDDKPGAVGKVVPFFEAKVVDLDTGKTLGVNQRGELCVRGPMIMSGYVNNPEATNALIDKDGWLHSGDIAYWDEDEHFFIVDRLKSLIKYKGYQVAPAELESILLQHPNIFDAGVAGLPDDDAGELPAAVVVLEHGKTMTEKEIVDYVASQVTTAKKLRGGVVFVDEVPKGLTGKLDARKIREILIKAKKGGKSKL
Sequence of DNA dC->dU-editing enzyme APOBEC-3A (P31941 whole entry): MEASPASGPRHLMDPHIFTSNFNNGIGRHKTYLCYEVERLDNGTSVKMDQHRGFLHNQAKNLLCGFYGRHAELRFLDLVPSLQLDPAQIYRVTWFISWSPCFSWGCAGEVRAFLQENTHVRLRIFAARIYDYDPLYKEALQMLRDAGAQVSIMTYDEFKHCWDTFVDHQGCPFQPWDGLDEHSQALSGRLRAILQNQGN
Sequence of Eukaryotic translation initiation factor 4E (P63073 whole entry): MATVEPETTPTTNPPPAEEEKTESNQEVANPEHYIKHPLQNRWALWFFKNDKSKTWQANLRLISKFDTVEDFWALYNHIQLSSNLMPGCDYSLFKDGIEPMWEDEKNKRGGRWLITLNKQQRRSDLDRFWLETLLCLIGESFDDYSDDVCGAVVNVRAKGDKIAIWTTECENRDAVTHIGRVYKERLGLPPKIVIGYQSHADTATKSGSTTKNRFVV

## Cc1cccc2c(N=Nc3ccccc3)c(O)[nH]c12
cells
  EC50: > 67.5 µM (inactive)
[1]
  IC50: > 67.5 µM (inactive)
[2]
  EC50: > 67.5 µM (inactive)
[3]
  EC50: > 67.5 µM (inactive)

## CCOC(=O)c1sc(NC(=O)/C=C/c2cnn(C)c2C)c(C(=O)OCC)c1C
Prothrombin
  IC50: > 50 µM (not active)

## COc1cc(OC)cc(-n2nnnc2SCC(=O)Nc2ccc(C(C)=O)cc2)c1
Prothrombin
  IC50: > 50 µM (not active)
[4]
  EC50: 8.56 µM (active)
[5]
  EC50: 8.1 µM (active)
[6]
  EC50: 5.13 µM (active)

## CCC1(CC)Cc2ccccc2C2=C(C(=O)N3CCCCC3)C(=O)C(=O)N21
[7]
  IC50: > 50 µM (not active)

## CC1CCCCC1NC(=O)COC(=O)c1ccc([N+](=O)[O-])o1 (stereo unspecified)
Caspase-6
  AC50: 43.8 µM (active)

## Fc1ccccc1-c1nc(-c2ccccc2)no1
cells
  EC50: > 67.5 µM (inactive)
[2]
  EC50: > 67.5 µM (inactive)

## CN1N=C(N)c2cn(C3OC(COP(=O)(O)O)C(O)C3O)c3ncnc1c23 (stereo unspecified)
[8]
  IC50: > 66 µM (inactive)
P388
  GI50: 0.5 µM (active)
P388/ADR
  GI50: 0.5 µM (active)
SN12K1
  GI50: 32.8 µM (inactive)
[9]
  IC50: > 66 µM (inactive)
Caspase-6
  AC50: 29.6 µM (active)

## Cc1ccc(C(=O)C2CC2)c(C)c1
[1]
  IC50: > 67.4 µM (inactive)
[3]
  EC50: > 67.4 µM (inactive)

## CCOC(=O)c1ccc(/N=c2\ssnc2Cl)cc1
[10]
  IC50: 11.5 µM (active)
[11]
  IC50: 13.8 µM (active)
[7]
  IC50: > 50 µM (not active)
[12]
  IC50: > 100 µM (inactive)
[13]
  IC50: 50 µM (inactive)
[14]
  IC50: 7.13 µM (active)

## OC1=C(/C=N/c2ccc3c(c2)OCO3)CCc2ccccc21
[15]
  EC50: 0.871 µM (active)
[16]
  EC50: 7.7 µM (active)
[17]
  EC50: 2.31 µM (active)
HT-1080
  EC50: > 50 µM (not active)
Protein RecA
  EC50: 0.43 µM (active)
[18]
  EC50: 7.07 µM (active)
[19]
  AC50: > 380 µM (inactive)
[7]
  IC50: 0.829 µM (active)
[20]
  CC50: > 40 µM (active)
